Experimental data as given in patent US10125125B2, “N-(heteroaryl)-sulfonamide derivatives useful as S100-inhibitors” (Active Biotech AB, priority 2013, dated 2018).

Target: biotinylated human S100A9 : rhRAGE-Fc interaction (Homo sapiens (Human), UniProt P06702)
Test: AlphaScreen inhibition assay, Biot-hS100A9:hRAGE-Fc (S100A9-RAGE inhibition assay)
Format: binding
Description: FIG. 1 is a schematic representation of an assay of the inhibition of the interaction between biotinylated human S100A9 and human RAGE-Fc using a small molecule S100A9 binder.
Inhibition Assay, Biot-hS100A9:hRAGE-Fc
The AlphaScreen (Amplified Luminescent Proximity Homogeneous Assay) contains two types of beads, Alpha Donor beads and Acceptor beads (PerkinElmer). Upon laser excitation at 680 nm a photosensitizer in the Donor bead converts ambient oxygen to a more excited singlet state. The singlet oxygen molecule diffuses (maximum 200 nm) to react with a thioxene derivative in the Acceptor bead and generates a chemiluminescence reaction. Fluorophores in the Acceptor bead subsequently emit light at 520-620 nm which can be detected in the EnVision® Multilabel plate Reader (PerkinElmer). The beads are light sensitive and all work with the beads is performed under subdued light conditions or using green filters on light sources (Roscolux Chroma Green #389, Rosco).
In the AlphaScreen Inhibition Assay described here, protein A (Staphylococcus aureus) conjugated Acceptor beads are used together with streptavidin coated Donor beads (Perkin Elmer 6760617M). The Acceptor beads are pre-incubated with Fc-tagged recombinant human RAGE (rhRAGE-Fc) allowing binding of the rhRAGE-Fc to protein A on the beads. Biotinylated human S100A9 (biot-hS100A9) is pre-incubated with the low molecular test compounds. The pre-mixes are then added to the wells of a micro-plate and incubated allowing interaction between biot-hS100A9 and rhRAGE-Fc. Subsequent addition of streptavidin coated Donor beads causes binding of the streptavidin to the biotinylated hS100A9. After an additional incubation the signal is measured.
Without inhibitory compounds, the interaction of biot-hS100A9 to rhRAGE-Fc will bring the Acceptor and Donor beads in close proximity thus generating a high signal. With an inhibitor present the complex will not form resulting in a decreased signal.
Chemicals and reagents. • AlphaScreen® General IgG (Protein A) Detection Kit, (PerkinElmer 6760617M) • HBS-P buffer (GE Healthcare, BR-1003-68) • HBS-N buffer (GE Healthcare, BR-1003-69) • CaCl2 in HBS-P • ZnCl2 in Milli-Q water • DMSO • Biotinylated hS100A9, (biotinylated via cystein by EZ-link Iodoacetyl-PEG2-Biotin reagent (Pierce no. 21334), in HBS-N • rhRAGE-Fc (R&D Systems, 1145-RG-50), in HBS-P
The AlphaScreen assay method is used for screening of the inhibitory effect of different compound samples at fixed concentrations or for IC50 determination by varying the compound concentrations. Samples of test compounds and references are prepared from solutions in DMSO. Relevant reference inhibitors and DMSO are used as controls for defined inhibition and non-inhibition, respectively in the assay. The percent inhibition in assay for test compounds and references are calculated by comparing their obtained assay signals with the signal values for the control with only DMSO (no compound).
Assay concentration of biotinylated hS100A9 and rhRAGE-Fc are batch dependent, and are determined and defined by separate cross-titration experiments using this AlphaScreen inhibition method to verify the optimal setup regarding signal strength and achievement of a defined inhibition with relevant reference compounds. The Final assay concentrations of Acceptor and Donor beads are 20 μg/mL.
Experimental Set Up for Screening, Preparation of Solutions and Beads.
Assay buffer is prepared by adding CaCl2 and ZnCl2 to HBS-P and is used freshly prepared in the experiment.
Biotin-hS100A9 solution for the experiment is prepared by dilution of appropriate amount of stock solution biot-hS100A9 in assay buffer (with CaCl2 and ZnCl2) and incubation in room temperature for 30 minutes.
rhRAGE-Fc solution for the experiment is prepared by dilution appropriate amount of rhRAGE-Fc stock in assay buffer.
Protein A Acceptor beads are diluted in assay buffer and are added to an equal volume of the prepared diluted rhRAGE-Fc solution.

Sequence of biotinylated human S100A9 : rhRAGE-Fc interaction (P06702 whole entry): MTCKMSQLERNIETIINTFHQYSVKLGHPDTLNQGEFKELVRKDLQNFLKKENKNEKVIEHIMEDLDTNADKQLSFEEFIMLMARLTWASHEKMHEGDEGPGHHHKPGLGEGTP

O=S(=O)(Cc1cc(Cl)cc(Cl)c1)Nc1nc(C(F)(F)F)ncc1O [Example 157, 1-(3,5-dichlorophenyl)-N-[5-hydroxy-2-(trifluoromethyl)pyrimidin-4-yl]methane-sulfonamide] and O=S(=O)(Cc1cc(Cl)cc(Cl)c1)Nc1nc(Cl)ncc1O [Example 143, N-(2-chloro-5-hydroxypyrimidin-4-yl)-1-(3,5-dichlorophenyl)methanesulfonamide] cannot be ordered by IC50: less than 1000 nM for the first, 180 nM for the second.

O=S(=O)(Nc1ncc(Cl)cc1O)c1cncc(Br)c1 [Example 40, 5-bromo-N-(5-chloro-3-hydroxypyridin-2-yl)pyridine-3-sulfonamide] and O=S(=O)(Nc1ncc(Cl)cc1O)c1ccc(C(F)(F)F)nc1 [Example 41, N-(5-chloro-3-hydroxypyridin-2-yl)-6-(trifluoromethyl)pyridine-3-sulfonamide] cannot be ordered by IC50: 3000 nM for the first, greater than 1000 nM for the second.

Going from O=S(=O)(Nc1cnccc1O)c1cc(Cl)sc1Cl [Example 63, 2,5-dichloro-N-(4-hydroxypyridin-3-yl)thiophene-3-sulfonamide] to O=S(=O)(Nc1cc(Cl)cnc1O)c1cc(Cl)sc1Cl [Example 74, 2,5-dichloro-N-(5-chloro-2-hydroxypyridin-3-yl)thiophene-3-sulfonamide], the IC50 falls from 4600 nM to 2600 nM (1.8-fold).

Going from CCN(CC)C(=O)c1cc(Cl)cc(CS(=O)(=O)Nc2nnc(Cl)cc2O)c1 [Example 161, 3-chloro-5-{[(6-chloro-4-hydroxypyridazin-3-yl)sulfamoyl]methyl}-N,N-diethylbenzamide] to O=S(=O)(Cc1cc(Cl)cc(Cl)c1)Nc1nnc(Cl)cc1O [Example 36, N-(6-chloro-4-hydroxypyridazin-3-yl)-1-(3,5-dichlorophenyl)methanesulfonamide], the IC50 falls from 5100 nM to 100 nM (51-fold). The second is the more potent here.

O=S(=O)(Cc1ccc(Cl)c(Cl)c1)Nc1cnc(Cl)cc1O [Example 70, N-(6-chloro-4-hydroxypyridin-3-yl)-1-(3,4-dichlorophenyl)methanesulfonamide] and COc1ncc(CS(=O)(=O)Nc2ccc(Cl)nc2O)cc1Cl [Example 182, N-(6-chloro-2-hydroxypyridin-3-yl)-1-(5-chloro-6-methoxypyridin-3-yl)methane-sulfonamide] cannot be ordered by IC50: 800 nM for the first, less than 1000 nM for the second.

O=S(=O)(Cc1ccc(F)c(F)c1)Nc1nnc(Cl)cc1O [Example 76, N-(6-chloro-4-hydroxypyridazin-3-yl)-1-(3,4-difluorophenyl)methanesulfonamide] and O=S(=O)(Cc1cccc(Cl)c1)Nc1nnc(Cl)cc1O [Example 96, N-(6-chloro-4-hydroxypyridazin-3-yl)-1-(3-chlorophenyl)methanesulfonamide] cannot be ordered by IC50: less than 1000 nM for the first, 410 nM for the second.

O=S(=O)(Cc1cnc(N2CCCC2)c(Cl)c1)Nc1ccc(Cl)nc1O [Example 185, N-(6-chloro-2-hydroxypyridin-3-yl)-1-[5-chloro-6-(pyrrolidin-1-yl)pyridin-3-yl]-methanesulfonamide] and CCS(=O)(=O)c1ccc(NS(=O)(=O)Cc2cc(Cl)cc(Cl)c2)c(O)n1 [Example 188, 1-(3,5-dichlorophenyl)-N-[6-(ethanesulfonyl)-2-hydroxypyridin-3-yl]methane-sulfonamide] cannot be ordered by IC50: less than 1000 nM for the first, less than 1000 nM for the second.

CN(C)c1ncc(S(=O)(=O)Nc2ncc(Cl)cc2O)cc1S(C)(=O)=O [Example 136, N-(5-chloro-3-hydroxypyridin-2-yl)-6-(dimethylamino)-5-methanesulfonylpyridine-3-sulfonamide] and CC(C)c1cnc(NS(=O)(=O)c2cnc(Cl)c(Br)c2)c(O)c1 [Example 11, 5-bromo-6-chloro-N-[3-hydroxy-5-(propan-2-yl)pyridin-2-yl]pyridine-3-sulfonamide] cannot be ordered by IC50: greater than 1000 nM for the first, greater than 1000 nM for the second.

Compared with O=S(=O)(Nc1nc(Cl)ncc1O)c1ccc(Cl)c(Cl)c1 [Example 144, 3,4-dichloro-N-(2-chloro-5-hydroxypyrimidin-4-yl)benzene-1-sulfonamide], COc1ncc(S(=O)(=O)Nc2nnc(Cl)cc2O)cc1Br [Example 114, 5-bromo-N-(6-chloro-4-hydroxypyridazin-3-yl)-6-methoxypyridine-3-sulfonamide] is higher in IC50: less than 1000 nM for the first, 1000 nM for the second. The first is the more potent here.

Compared with O=S(=O)(Nc1nnc(Cl)cc1O)c1cc(Cl)sc1Cl [Example 113, 2,5-dichloro-N-(6-chloro-4-hydroxypyridazin-3-yl)thiophene-3-sulfonamide], N#Cc1ccc(Cl)c(CS(=O)(=O)Nc2nnc(Cl)cc2O)c1 [Example 85, N-(6-chloro-4-hydroxypyridazin-3-yl)-1-(2-chloro-5-cyanophenyl)methane-sulfonamide] is 2-fold lower in IC50: 2000 nM for the first, 980 nM for the second.

O=S(=O)(Cc1cc(Cl)cc(Cl)c1)Nc1cncc(Br)c1O [Example 97, N-(5-bromo-4-hydroxypyridin-3-yl)-1-(3,5-dichlorophenyl)methanesulfonamide] and N#Cc1cncc(NS(=O)(=O)Cc2cc(Cl)cc(Cl)c2)c1O [Example 138, N-(5-cyano-4-hydroxypyridin-3-yl)-1-(3,5-dichlorophenyl)methanesulfonamide] are within 1.5-fold of each other in IC50: 3800 nM for the first, 3900 nM for the second.

Going from COc1ncc(S(=O)(=O)Nc2cncc(Cl)c2O)cc1Br [Example 59, 5-bromo-N-(5-chloro-4-hydroxypyridin-3-yl)-6-methoxypyridine-3-sulfonamide] to COc1ncc(S(=O)(=O)Nc2cnc(C(F)(F)F)cc2O)cc1Br [Example 137, 5-bromo-N-[4-hydroxy-6-(trifluoromethyl)pyridin-3-yl]-6-methoxypyridine-3-sulfonamide], the IC50 falls from 2800 nM to 1800 nM (1.6-fold).

Compared with CS(=O)(=O)c1cnc(NS(=O)(=O)Cc2cc(Cl)cc(Cl)c2)c(O)n1 [Example 112, 1-(3,5-dichlorophenyl)-N-(3-hydroxy-5-methanesulfonylpyrazin-2-yl)methane-sulfonamide], CS(=O)(=O)c1cnc(NS(=O)(=O)c2cc(Cl)cc(Cl)c2)c(O)n1 [Example 159, 3,5-dichloro-N-(3-hydroxy-5-methanesulfonylpyrazin-2-yl)benzene-1-sulfonamide] is 4.3-fold higher in IC50: 420 nM for the first, 1800 nM for the second. The first is the more potent here.

CS(=O)(=O)c1nc(NS(=O)(=O)Cc2cc(Cl)cc(Cl)c2)c(O)cc1Cl [Example 134, N-(5-chloro-3-hydroxy-6-methanesulfonylpyridin-2-yl)-1-(3,5-dichlorophenyl)-methanesulfonamide] and N#Cc1nc(NS(=O)(=O)Cc2cc(Cl)cc(Cl)c2)c(O)cc1Cl [Example 130, N-(5-chloro-6-cyano-3-hydroxypyridin-2-yl)-1-(3,5-dichlorophenyl)methane-sulfonamide] are within 1.5-fold of each other in IC50: 530 nM for the first, 390 nM for the second.

CCS(=O)(=O)c1cc(O)c(NS(=O)(=O)Cc2cc(Cl)cc(Cl)c2)nn1 [Example 111, 1-(3,5-dichlorophenyl)-N-[6-(ethanesulfonyl)-4-hydroxypyridazin-3-yl]methanesulfonamide] and O=S(=O)(Cc1cc(Cl)cc(Cl)c1)Nc1ncc(S(=O)(=O)C2CCCC2)cc1O [Example 131, N-[5-(cyclopentanesulfonyl)-3-hydroxypyridin-2-yl]-1-(3,5-dichlorophenyl)methane-sulfonamide] are within 1.5-fold of each other in IC50: 100 nM for the first, 120 nM for the second.

Going from CCCc1ccc(S(=O)(=O)Nc2ccc(Cl)nc2O)cc1 [Example 179, N-(6-chloro-2-hydroxypyridin-3-yl)-4-propylbenzene-1-sulfonamide] to CCS(=O)(=O)c1cnc(NS(=O)(=O)Cc2cccc(Cl)c2)c(O)n1 [Example 88, 1-(3-chlorophenyl)-N-[5-(ethanesulfonyl)-3-hydroxypyrazin-2-yl]methane-sulfonamide], the IC50 rises from less than 1000 nM to greater than 1000 nM. The first is the more potent here.

Work on CS(=O)(=O)c1cc(O)c(NS(=O)(=O)c2cc(Cl)cc(Cl)c2)cn1 [Example 155, 3,5-dichloro-N-(4-hydroxy-6-methanesulfonylpyridin-3-yl)benzene-1-sulfonamide] yielded an IC50 greater than 1000 nM.
